Measured values reported in patent publication US20250353898A1, “SERPIN PEPTIDE DERIVATIVES AND METHODS OF USING THE SAME” (priority 2022, published 2025).
Positions of bridges follow the written chain, without caps; N, C: chain ends. Non-standard residues stand in square brackets, D forms with d. Residues, ends and D or L forms follow the SMILES beside them. Nle = CCCC[C@H](N)C(=O)O

Columns and labels:
TMPRSS2 = target: T1, TMPRSS2 (Homo sapiens, UniProt O15393); assay: cell-based; settings: overexpressing cell system; read-out: IC50 against TMPRSS2 (converted)
T1 construct: expressed in transfected cells
T1 sequence (O15393 whole entry): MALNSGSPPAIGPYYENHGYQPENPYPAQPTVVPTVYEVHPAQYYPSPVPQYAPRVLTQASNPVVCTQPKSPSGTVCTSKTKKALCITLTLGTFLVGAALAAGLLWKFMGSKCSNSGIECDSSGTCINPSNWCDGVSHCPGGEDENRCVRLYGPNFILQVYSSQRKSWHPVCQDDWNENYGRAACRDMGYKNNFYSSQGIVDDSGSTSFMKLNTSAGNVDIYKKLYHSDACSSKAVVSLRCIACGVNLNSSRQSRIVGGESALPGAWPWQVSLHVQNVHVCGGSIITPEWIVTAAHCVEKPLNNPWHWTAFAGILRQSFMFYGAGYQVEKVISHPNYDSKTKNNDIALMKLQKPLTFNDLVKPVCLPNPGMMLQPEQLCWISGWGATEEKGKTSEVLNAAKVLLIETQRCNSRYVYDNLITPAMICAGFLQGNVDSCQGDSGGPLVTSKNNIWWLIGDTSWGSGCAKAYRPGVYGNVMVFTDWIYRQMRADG

IL-6 = IL-6 secretion in IMG microglial cells after LPS (ELISA); assay type: cell-based; settings: IMG microglial cells, LPS 100 ng/ml, 24 hours
NFκB = NFκB reporter assay (SEAP) in THP1-XBlue-MD2-CD14 cells after LPS; assay type: cell-based
Procedure: The NFκB inducible Secreted Embryonic Alkaline Phosphatase (SEAP) was measured in the supernatant and read for absorbance.
(§1) Various SERPIN peptide derivatives were screened in vitro for their ability to reduce TNFα and NFκB secretion via LRP-1 activation. The NFκB reporter cells (THP1-XBlue-MD2-CD14 cells) were treated with each peptide derivative at various concentrations, up to 100 μg/ml before being insulted with LPS (5 ng/ml) and incubated overnight. The NFκB inducible Secreted Embryonic Alkaline Phosphatase (SEAP) was measured in the supernatant and read for absorbance. IMG Microglial cells were treated with each peptide derivative at various concentrations, up to 100 μg/ml before LPS (100 ng/ml) stimulation for 24 hours. An ELISA was used to measure TNFα in the supernatant ([…]).

TNFα = TNFα secretion in IMG microglial cells after LPS (ELISA); assay type: cell-based; settings: FIG. 6A/7, up to 50 μg/mL, LPS 100 ng/ml 24 hours; versus SP163M, SA7
Procedure: In the NFκB reporter cells, the NFκB inducible Secreted Embryonic Alkaline Phosphatase (SEAP) was measured in the supernatant. TNFα secretion in the supernatant was measured via ELISA.
as §1

CCCC[C@@H]1NC(=O)[C@H](CC(C)C)NC(=O)[C@H](Cc2ccccc2)NC(=O)[C@H](C(C)C)NC(=O)[C@H](Cc2ccccc2)NC(=O)[C@@H]2CCCN2C(=O)[C@@H](NC(=O)[C@H](CCCNC(=N)N)NC(=O)[C@H](CCCNC(=N)N)NC(=O)[C@H](CCCNC(=N)N)NC(C)=O)CSSC[C@@H](C(=O)O)NC1=O [SA7] (Ac-RRRCPFVFL[Nle]C-OH; disulfide 4-11)
IC50 (TMPRSS2): 0.0572 µM

Ac- RRRKFT[Nal]]LD (cyclic) [Peptide A3-7]
EC50 IL-6 (IL-6): 3.651 µg/mL
EC50 NFκB (NFκB; NFκB reporter cells, LPS 5 ng/ml): 22.41 µg/mL

HN-RRRFVFLAD (cyclic) (not fully specified; cyclised or stapled) [Peptide A2-3]
activity in reducing TNFα (TNFα): superior activities in reducing TNFα
activity in reducing NFκB activation (NFκB; FIG. 6B/7, up to 50 μg/mL, LPS 5 ng/ml 24 hours, versus SP163M, SA7): superior activities
